Assay results published in patent US10638750B2, “Compositions containing a hollow glucan particle or a cell wall particle encapsulating a terpene component, methods of making and using them” (Eden Research PLC, priority 2004, dated 2020).
Where two headings read alike, the source gives them in different places.

How the values were obtained:
Saccharomyces cerevisiae = Saccharomyces cerevisiae MIC assays comparing free terpene emulsions with yeast-encapsulated terpenes; format: cell-based; details: free terpene emulsion; for Cidal MIC Free terpene emulsions: re-incubation in fresh medium
Description: One column was designated as a cell-only control and no terpene was added to these wells. Serial 2-fold dilutions were performed by transferring 100 μL from one row to the next a total of 7 times. […] Microtitre plates were incubated statically overnight at 30° C. […] Growth inhibition was visually confirmed by microscopy. For the free terpene emulsions, once the MIC had been determined for each formulation, the microtitre plates were centrifuged and the spent medium was removed from the growth-inhibited wells. The cells were resuspended in fresh medium (100 μL) and the plates were re-incubated overnight at 30° C. Assessment of growth inhibition was performed as before.

[1] = Terpene stability by formation of a yellow colored oxidation product of citral; format: physicochemical
[2] = Citral solution and stable suspension limits; format: physicochemical
E. coli = details: cited from earlier work
S. aureus = experiment: MIC of terpene emulsions and fresh or freeze-dried Baker's YP and SAF Mannan encapsulated terpenes; format: cell-based; details: for MIC: Staphylococcus aureus
Description: The results of a protocol performed to compare the MIC of fresh versus freeze dried hollow glucan particle encapsulated terpene formulations are shown below in Table 13. A simple terpene emulsion was also tested and the results are shown for comparison.

H. pylori = details: in vitro; cited from earlier work
[3] = encapsulated in Baker's YP, freeze dried, read-out: MIC μg/ml terpene, Bakers Freeze Dried
[4] = encapsulated in Baker's YP, fresh, read-out: MIC μg/ml terpene, Bakers Fresh
[5] = encapsulated in SAF Mannan, freeze dried, read-out: MIC μg/ml terpene, SAF Mannan Freeze Dried
[6] = encapsulated in SAF Mannan, fresh, read-out: MIC μg/ml terpene, SAF Mannan Fresh
[7] = terpene emulsion, not encapsulated, read-out: MIC μg/ml terpene, Emulsion

| Compound | MIC Free terpene emulsions (Saccharomyces cerevisiae) | Cidal MIC Free terpene emulsions (Saccharomyces cerevisiae) | MIC (S. aureus; [3]) | MIC (S. aureus; [4]) | MIC (S. aureus; [5]) | MIC (S. aureus; [6]) | MIC (S. aureus; [7]) | also measured |
| --- | --- | --- | --- | --- | --- | --- | --- | --- |
| CC(C)=CCCC(C)=CC=O (mixture of isomers) [C (4)] | 125 ppm | 250 ppm |  |  |  |  |  |  |
| CC(C)=CCCC(C)=CC=O [Citral, 3,7-dimethyl-2,6-octadien-1-al] |  |  | 0.05 µg/mL | 0.01 µg/mL | > 0.03 µg/mL | 0.01 µg/mL | 0.94 µg/mL | yellow color (citral oxidation product) over time ([1]; aqueous emulsion): turned a progressively increasing yellow color over time; yellow color (citral oxidation product) over time ([1]; encapsulated in Bakers YP): turned a progressively increasing yellow color over time; citral stability (yellow color over time) ([1]; encapsulated in SAF Mannan): increased citral stability; citral stability (absence of yellow colour) ([1]; loaded in SAF Mannan, after 24 hours at 37° C.): remains stable; concentration up to which a solution can be made [2]: about 500 ppm; concentration up to which a stable suspension can be formed [2]: about 2500 ppm; concentration in growth media that reduced the concentration of E. coli (E. coli): more than 0.01%; concentration with bactericidal effect (E. coli): 0.08% |
| C=CCc1ccc(O)c(OC)c1 [E (2)] | 125 ppm | 250 ppm |  |  |  |  |  |  |
| C=CCc1ccc(O)c(OC)c1 [Eugenol, eugenol] |  |  | 0.05 µg/mL | 0.03 µg/mL | 0.05 µg/mL | 0.01 µg/mL | 0.12 µg/mL |  |
| CC(C)=CCC/C(C)=C/CO [G (1)] | 250 ppm | 250 ppm |  |  |  |  |  |  |
| CC(C)=CCC/C(C)=C/CO [Geraniol, geraniol] |  |  | 0.06 µg/mL | 0.03 µg/mL | > 0.03 µg/mL | 0.02 µg/mL | 0.47 µg/mL | concentration that inhibited the growth of H. pylori (H. pylori): 2 mg/L |
| C=C(C)[C@@H]1CC=C(C)C(=O)C1 [L (5)] | 250 ppm | 500 ppm |  |  |  |  |  |  |
| Cc1ccc(C(C)C)c(O)c1 [T (3)] | 125 ppm | 250 ppm |  |  |  |  |  |  |
| L-carvone |  |  |  |  |  |  |  | MIC μg/ml terpene, Bakers Freeze Dried (S. aureus; encapsulated in Baker's YP, freeze dried): >0.04 µg/mL; MIC μg/ml terpene, Bakers Fresh (S. aureus; encapsulated in Baker's YP, fresh): 0.1 µg/mL; MIC μg/ml terpene, SAF Mannan Freeze Dried (S. aureus; encapsulated in SAF Mannan, freeze dried): >0.02 µg/mL; MIC μg/ml terpene, SAF Mannan Fresh (S. aureus; encapsulated in SAF Mannan, fresh): 0.01 µg/mL; MIC μg/ml terpene, Emulsion (S. aureus; terpene emulsion, not encapsulated): 3.75 µg/mL |
